Series [1] in a line: Elimination half-life in ICR mouse plasma at 1 mg/kg, iv. The format is ADME, organism-based. As to conditions: read-out: beta t1/2 (converted).
The test system of series [2] is CAKI-1. The experiment in a line: Cell cycle arrest in NNMT siRNA transfected human Caki1 cells assessed as accumulation at G2/M phase at 500 pM after 24 hrs by flow cytometry (reference value: 15.2%). The class given is functional.
Series [3] is described as follows: Solubility of the compound in 1:1 mixture of phosphate buffer and EtOH. The class given is physicochemical.
A further series deals with MDA-MB-231. Description: Ratio of antofine IC50 to compound IC50 for human MDA-MB-231 cells. The format is functional.
Series [4] has as its system CAKI-1. Description: Cell cycle arrest in human Caki1 cells assessed as accumulation at S phase at 1000 pM after 24 hrs by flow cytometry (reference value: 13.4%). The format is functional. A general note: In flow cytometry, cells or beads pass a laser one at a time.
The test system of series [5] is CAKI-1. Description: Cell cycle arrest in scrambled siRNA transfected human Caki1 cells assessed as accumulation at S phase at 500 pM after 24 hrs by flow cytometry (reference value: 7.5%). The format is functional.
Series [6] in a line: Decrease of cyclin-A2 expression in human Caki1 cells after 24 hrs by Western blot analysis. The format is functional, cell-based. As to conditions: CAKI-1. For orientation: A western blot detects proteins with antibodies after separation by electrophoresis.
Another series relates to PC-3. Description: Ratio of cryptopleurine IC50 to compound IC50 for human PC3 cells. The format is functional.

A word on the solubility: it is the concentration that dissolves in the medium under given conditions.

In brackets after ≈: the same amount, converted by molar mass.

Regarding `COc1cc2c3c(c4ccc(NS(C)(=O)=O)cc4c2cc1OC)CN1CCCC[C@@H]1C3`, the half-life in series [1] is 1.2 h. Moreover, the Activity in the series on CAKI-1 [2] was 13.8%; in the series on CAKI-1 [4], 7.5%; in the series on CAKI-1 [5], 3.1%; in series [6], “Dose-dependent effect”. Further, in series [3], the solubility was determined as 513 µg/mL (≈ 1160 µM). Besides, the “Ratio IC50” value is 20 in the series on MDA-MB-231 and 2 in the series on PC-3.

These data come from ChEMBL document CHEMBL3621165, “Design, Synthesis, and Biological Activity of Sulfonamide Analogues of Antofine and Cryptopleurine as Potent and Orally Active Antitumor Agents” (J Med Chem, 2015).
